Test results reported in EP0170121A1, “2-Hydroxy-3-aryloxypropyl or 2-hydroxy-2-benzofuranyl ethyl tertiary amine having an anti-hyperglycaemic and/or anti-obesity activity” (BEECHAM GROUP PLC, priority 1984, dated 1986).
Structures can show the parent of a compound that is named as a salt.

Tests used:
Female CD1 mice = assay: Effect on energy expenditure of mice (oxygen consumption, oral dosing); type: in vivo; conditions: p.o. in water, percentage of the rate of energy expenditure of the mice dosed with water, dose differs per compound (Dose mg/kg p.o.); for Mean Energy Expenditure (0-3h): 0-3h after dosing; for Mean Energy Expenditure (0-21h): 0-21h after dosing
Procedure: Female CD1 mice each weighing approximately 24 g were given food and water ad lib before and during the experiment. The compounds were dissolved in water and these solutions were administered orally to each of 12 mice. A further 12 mice were dosed orally with water. The mice were placed in groups of threes in boxes through which air was drawn and the oxygen content of the air leaving the boxes was measured. The energy expenditure of the mice was calculated for 3 and 21 hours after dosing from the volume of air leaving the boxes and its oxygen content, following the principles described by J.B. de V. Weir, J. Physiol. (London) 109, 1-9 (1949). The results are expressed as a percentage of the rate of energy expenditure of the mice dosed with water.

Male Sprague-Dawley rats = assay: Effect on energy expenditure of rats (oxygen consumption, oral dosing); type: in vivo; conditions: deprived of food, p.o. in water, percentage of the rate of energy expenditure of the rats dosed with water, dose differs per compound (Dose mg/kg p.o.); for Mean Energy Expenditure (0-3h): 0-3h after dosing; for Mean Energy Expenditure (0-21h): 0-21h after dosing
Procedure: Male Sprague-Dawley rats each weighing between 170-200 g were deprived of food for 16 hours before, and during the experiment. Water was provided ad lib at all times. The compounds were administered orally in water to 3 or 4 rats. A further 4 rats were dosed orally with water. The rats were placed in boxes through which air was drawn and the oxygen content of the air leaving the boxes was measured. The energy expenditure of the rats was calculated for 3 hours and for 21 hours after dosing from the volume of air leaving the boxes and its oxygen content, following the principles described by J.B. de V. Weir, J. Physiol. (London) 109, 1-9 (1949). The results are expressed as a percentage of the rate of energy expenditure of the rats dosed with water.

Isolated Rat Atria = assay: Effect of compounds on isolated rat atria (rate of right atrium, tension of left atrium); type: cell-based, Sprague-Dawley male rats; conditions: Krebs solution 32°C, up to 3x10-^5M; for effect on tension (electrically paced left atrium): isolated rat left atrium; for effect on rate (spontaneously beating right atrium): isolated rat right atrium
Procedure: Sprague-Dawley male rats (300-400 g) are killed and the right and left atria dissected out independently and mounted on a combined tissue holder/electrode. The tissues are then immersed in a glass bath containing Krebs solution maintained at 32 °C. The rate of the spontaneously beating right atrium (via an isometric tranducer and a ratemeter) and the tension of the electrically paced left atrium (via an isometric transducer) are recorded on an M19 chart recorder.
After an initial stabilization period, the tissues are exposed to a maximal concentration of isoprenaline (10^-6M). The tissues are then washed several times until rate and tension return to baseline level. A dose-response curve to the test compound is then carried out.

Female CFLP mice = assay: Hypoglycaemic activity: subcutaneous glucose load, area under blood glucose curve; type: in vivo; conditions: female CFLP mice fasted 24 hours; compound orally 30 minutes before glucose 1 g/kg s.c.; 2 hour period; versus control mice given water; dose differs per compound (Dose µmol/kg)
Procedure: Female CFLP mice, weighing approximately 25 g, were fasted for 24 hours prior to the study. The compounds under study were administered orally as an aqueous solution to each of 6 mice. 30 minutes later a blood sample (20 µl) was obtained from the tail for the analysis of blood glucose. Immediately after taking this blood sample, glucose (1 g/kg body weight) was administered subcutaneously to each mouse. 6 mice were given water as a control. Blood samples were then obtained from each mouse at 30 minute intervals for 120 minutes.
Compounds that produced a significant (p<0.05) reduction of blood glucose, compared with control mice given water, at any time interval, were considered active. The area under the blood glucose curve over the 2 hour period after the administration of the glucose was calculated for each compound and compared with the value for control animals.

Female BALB/c mice = assay: Anti-obesity activity: weight of parametrial fat pads after 3 days of compound in the diet; type: in vivo; conditions: compound in diet for 3 days, dose differs per compound (Dose mg/kg diet), mean of 9 values
Procedure: Female BALB/c mice were trained to feed on powdered oxoid for 1 week. They were then housed in threes and the compound under study was added to the diet for 3 days. Food was removed at 09.00h and the mice were killed at 11.00h. The parametrial fat pads were weighed as pairs. The result is a mean of 9 values.

| Compound | Mean Energy Expenditure (0-3h) (Female CD1 mice) | Mean Energy Expenditure (0-21h) (Female CD1 mice) | Mean Energy Expenditure (0-3h) (Male Sprague-Dawley rats) | Mean Energy Expenditure (0-21h) (Male Sprague-Dawley rats) | effect on tension (electrically paced left atrium) (Isolated Rat Atria) | effect on rate (spontaneously beating right atrium) (Isolated Rat Atria) | % Reduction in Area under Blood Glucose Curve (Female CFLP mice) | Percentage reduction in weight of parametrial fat pads compared with controls (Female BALB/c mice) |
| --- | --- | --- | --- | --- | --- | --- | --- | --- |
| COC(=O)c1ccc(C[C@@H](C)N(C[C@H](O)COc2ccccc2)C[C@H](O)COc2ccccc2)cc1 [Example 1, Methyl 4-[(R)-2-[bis-[(S)-2-hydroxy-3-phenoxypropyl]amino]propyl]benzoate] | 132 percentage | 107 percentage | 115 percentage | 114 percentage | no effect | no effect | 28% | – |
| COC(=O)c1ccc(C[C@@H](C)N(C[C@H](O)COc2ccccc2)C[C@H](O)c2ccccc2)cc1 [Example 4, Methyl 4-[(R)-2-[N-[(R)-2-hydroxy-2-phenethyl]-N-[(S)-2-hydroxy-3-phenoxypropyl]amino]propyl]benzoate, hydrochloride, monohydrate] | 145 percentage | 120 percentage | 110 percentage | 119 percentage | no effect | no effect | 12% | 25 Percentage |
| CC(Cc1ccc(OCC(N)=O)cc1)N(CC(O)COc1ccccc1)CC(O)c1cccc(Cl)c1.Cl (stereo not shown) [Example 8, 4-[2-[N-[2-(3-Chlorophenyl)-2-hydroxyethyl]-N-[2-hydroxy-3-phenoxypropyl]amino]propyl]phenoxyacetamide, hydrochloride] | 158 percentage | 122 percentage | – | – | no effect | no effect | 50% | 39 Percentage |
| COC(=O)c1ccc(CC(C)N(CC(O)COc2ccccc2)CC(O)c2ccc(O)c(CO)c2)cc1 (stereo not shown) [Example 9, Methyl 4-[2-[N-[2-hydroxy-2-[4-hydroxy-3-hydroxymethylphenyl]ethyl]-N-[2-hydroxy-3-phenoxypropyl]amino]propyl] benzoate] | 111 percentage | 106 percentage | – | – | – | – | 34% | 13 Percentage |
| COC(=O)COc1ccc(CC(C)N(CC(O)COc2ccc(CC(N)=O)cc2)CC(O)c2cccc(Cl)c2)cc1 (stereo not shown) [Example 11, Methyl 4-[2-[N-[2-(3-chlorophenyl)-2-hydroxyethyl]-N-[2-hydroxy-3-(4-carboxamidomethyl)phenoxypropyl]amino]propyl] phenoxyacetate, hydrochloride] | 120 percentage | 112 percentage | 136 percentage | 111 percentage | – | – | 57% | 16 Percentage |
| C[C@H](Cc1ccc(OCC(N)=O)cc1)N(C[C@H](O)COc1ccccc1)C[C@H](O)COc1ccccc1 [Example 14, 4-[(R)-2-[Bis-[(S)-2-hydroxy-3-phenoxypropyl]amino]propyl] phenoxyacetamide, hydrochloride] | 140 percentage | 112 percentage | 127 percentage | 117 percentage | no effect | no effect | 20% | – |
| CCOC(=O)COc1ccc(C[C@@H](C)N(C[C@H](O)COc2ccccc2)C[C@H](O)c2ccccc2)cc1 [Example 15, Ethyl 4-[(R)-2-[N-[(R)-2-hydroxy-2-phenethyl]-N-[(S)-2-hydroxy-3-phenoxypropyl]amino]propyl]phenoxyacetate, hydrochloride] | 144 percentage | 120 percentage | 135 percentage | 118 percentage | no effect | no effect | 42% | 32 Percentage |
| C[C@H](Cc1ccc(OCC(N)=O)cc1)N(C[C@H](O)COc1ccccc1)C[C@H](O)c1ccccc1 [Example 16, 4-[(R)-2-[N-[(R)-2-Hydroxy-2-phenethyl]-N-[(S)-2-hydroxy-3-phenoxypropyl]amino]propyl]phenoxyacetamide, hydrochloride, hemihydrate] | 151 percentage | 113 percentage | 141 percentage | 119 percentage | – | – | – | 27 Percentage |
| CCOC(=O)COc1ccc(C[C@@H](C)N(C[C@H](O)COc2ccccc2)C[C@H](O)COc2ccccc2)cc1 [Example 17, Ethyl 4-[(R)-2-[bis-[(S)-2-hydroxy-3-phenoxypropyl]amino]propyl]phenoxyacetate, hydrochloride, hemihydrate] | – | – | 120 percentage | 105 percentage | – | – | – | 37 Percentage |
| CCOC(=O)COc1ccc(C[C@@H](C)N(C[C@H](O)COc2ccccc2)C[C@H](O)c2cccc(Cl)c2)cc1 [Example 18, Ethyl 4-[(R)-2-[N-[(R)-2-(3-chlorophenyl)-2-hydroxyethyl]-N-[(S)-2-hydroxy-3-phenoxypropyl]amino]propyl]phenoxyacetate, hemifumarate] | – | – | 126 percentage | 109 percentage | – | – | 45% | 21 Percentage |
| C[C@H](Cc1ccc(OCCN)cc1)N(C[C@H](O)COc1ccccc1)C[C@H](O)c1ccccc1 [Example 20, 4-[(R)-2-[N-[(R)-2-Hydroxy-2-phenethyl]-N-[(S)-2-hydrpxy-3-phenoxypropyl]amino]propyl]phenoxyethylamine, dihydrochloride, hydrate] | 146 percentage | 120 percentage | 112 percentage | 110 percentage | – | – | 40% | 15 Percentage |
| CCOC(=O)COc1ccc(C[C@@H](C)N(C[C@@H](O)COc2ccccc2)C[C@H](O)c2ccccc2)cc1 [Example 23, Ethyl 4-[(R)-2-[N-[(R-2-hydroxy-2-phenethyl]-N-[(R)-2-hydroxy-3-phenoxypropyl]amino]propyl]phenoxyacetate, hydrochloride] | – | – | 129 percentage | 111 percentage | – | – | – | 31 Percentage |
